Consider 30 molecules from patent publication US20260007684A1, “AMIDE DERIVATIVES FOR INHIBITING NLRP3 AND USES THEREOF” (Ventus Therapeutics U.S., Inc., priority 2023, published 2026).

The first assay deals with human NLRP3 (Homo sapiens (Human), UniProt Q96P20). Description: Scintillation Proximity (SPA) NLRP3 Assay: displacement of 3H-MCC950. The format is binding. The following applies: SPA IC50, displacement of 3H-MCC950. For orientation: Scintillation proximity formats need no separation of bound from free tracer.
Chain of human NLRP3 (Q96P20 whole entry): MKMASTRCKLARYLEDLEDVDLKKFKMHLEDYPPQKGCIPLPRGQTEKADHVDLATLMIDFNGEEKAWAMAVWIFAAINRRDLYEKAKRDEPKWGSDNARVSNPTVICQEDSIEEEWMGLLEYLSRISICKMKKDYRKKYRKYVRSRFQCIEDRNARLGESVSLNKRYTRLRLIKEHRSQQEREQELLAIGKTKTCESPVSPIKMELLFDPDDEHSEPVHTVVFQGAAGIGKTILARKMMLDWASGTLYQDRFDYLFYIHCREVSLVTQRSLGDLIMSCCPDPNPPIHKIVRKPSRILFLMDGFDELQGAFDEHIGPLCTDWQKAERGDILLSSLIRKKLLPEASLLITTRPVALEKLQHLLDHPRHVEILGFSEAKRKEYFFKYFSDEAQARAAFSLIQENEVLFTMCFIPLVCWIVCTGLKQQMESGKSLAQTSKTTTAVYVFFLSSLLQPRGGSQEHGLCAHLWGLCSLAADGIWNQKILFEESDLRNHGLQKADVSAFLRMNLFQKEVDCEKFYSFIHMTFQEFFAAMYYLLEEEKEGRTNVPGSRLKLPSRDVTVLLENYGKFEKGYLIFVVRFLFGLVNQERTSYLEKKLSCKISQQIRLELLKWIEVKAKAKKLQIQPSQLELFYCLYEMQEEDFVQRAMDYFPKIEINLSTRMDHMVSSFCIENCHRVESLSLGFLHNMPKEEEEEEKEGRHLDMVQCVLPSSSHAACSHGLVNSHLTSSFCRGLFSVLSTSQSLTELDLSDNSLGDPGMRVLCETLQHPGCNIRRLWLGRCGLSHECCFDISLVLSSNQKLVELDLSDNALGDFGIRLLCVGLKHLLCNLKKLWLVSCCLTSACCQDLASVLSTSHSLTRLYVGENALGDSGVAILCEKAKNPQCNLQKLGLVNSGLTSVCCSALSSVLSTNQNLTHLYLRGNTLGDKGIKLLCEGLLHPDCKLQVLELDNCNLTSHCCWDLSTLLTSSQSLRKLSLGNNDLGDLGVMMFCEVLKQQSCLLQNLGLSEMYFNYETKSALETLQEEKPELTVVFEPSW
In general, IC50 refers to the concentration needed to halve the response being measured. As to `O=C(N[C@@H]1CCC[C@@H]2CC[C@H]1N2c1nnn[nH]1)C1(c2ccc(Cl)cc2)CC1` (single isomer, unassigned) [9A*, N-(9-(1H-tetrazol-5-yl)-9-azabicyclo[4.2.1]nonan-2-yl)-1-(4-chlorophenyl)cyclopropane-1-carboxamide], the IC50 fell in the range of 1 to 10 µM.
Still for that read-out and setting: the result for `O=C(N[C@H]1CCC[C@@H]2CC[C@H]1N2c1nnn[nH]1)C1(c2ccc(Cl)cc2)CC1` (single isomer, unassigned) [9B*, N-(9-(1H-tetrazol-5-yl)-9-azabicyclo[4.2.1]nonan-2-yl)-1-(4-chlorophenyl)cyclopropane-1-carboxamide] reads more than 100 µM; that for `O=C(N[C@@H]1CCC[C@H]2CC[C@@H]1N2c1nnn[nH]1)C1(c2ccc(Cl)cc2)CC1` (single isomer, unassigned) [9C*, N-(9-(1H-tetrazol-5-yl)-9-azabicyclo[4.2.1]nonan-2-yl)-1-(4-chlorophenyl)cyclopropane-1-carboxamide], more than 100 µM; that for `O=C(N[C@H]1CCC[C@H]2CC[C@@H]1N2c1nnn[nH]1)C1(c2ccc(Cl)cc2)CC1` (single isomer, unassigned) [9D*, N-(9-(1H-tetrazol-5-yl)-9-azabicyclo[4.2.1]nonan-2-yl)-1-(4-chlorophenyl)cyclopropane-1-carboxamide], 10 to 50 µM.

Still in this assay, the particulars now being: displacement of 3H-MCC950; read-out: SPA IC50.
Consider `Cc1cc(C2(C(=O)N[C@@H]3C[C@@H](C)CCN(c4nnn[nH]4)C3)CC2)ccc1C(F)(F)F` (single isomer, unassigned) [6C*, N-(5-methyl-1-(1H-tetrazol-5-yl)azepan-3-yl)-1-(3-methyl-4-(trifluoromethyl)phenyl)cyclopropane-1-carboxamide], for which the IC50 is more than 100 µM.
Still for that read-out and setting: the figure for `C[C@@H]1CCN(c2nnn[nH]2)C[C@@H](NC(=O)C2(c3cc(F)c(C(F)(F)F)cc3F)CC2)C1` (single isomer, unassigned) [7B*, 1-(2,5-difluoro-4-(trifluoromethyl)phenyl)-N-(5-methyl-1-(1H-tetrazol-5-yl)azepan-3-yl)cyclopropane-1-carboxamide] is 10 to 50 µM; for `C[C@H]1CCN(c2nnn[nH]2)C[C@H](NC(=O)C2(c3cc(F)c(C(F)(F)F)cc3F)CC2)C1` (single isomer, unassigned) [7C*, 1-(2,5-difluoro-4-(trifluoromethyl)phenyl)-N-(5-methyl-1-(1H-tetrazol-5-yl)azepan-3-yl)cyclopropane-1-carboxamide] it is 50 to 100 µM; for `C[C@H]1CCN(c2nnn[nH]2)C[C@@H](NC(=O)C2(c3cc(F)c(C(F)(F)F)cc3F)CC2)C1` (single isomer, unassigned) [7D*, 1-(2,5-difluoro-4-(trifluoromethyl)phenyl)-N-(5-methyl-1-(1H-tetrazol-5-yl)azepan-3-yl)cyclopropane-1-carboxamide] it is 1 to 10 µM.
The same measure, in the same setting: the result for `C[C@@H]1CCN(c2nnn[nH]2)C[C@H](NC(=O)C2(c3ccc(C4CCC4)cc3)CC2)C1` (single isomer, unassigned) [8A*, 1-(4-cyclobutylphenyl)-N-(5-methyl-1-(1H-tetrazol-5-yl)azepan-3-yl)cyclopropane-1-carboxamide] reads 1 to 10 µM.
Same read-out and setting: the figure for `C[C@@H]1CCN(c2nnn[nH]2)C[C@@H](NC(=O)C2(c3ccc(C4CCC4)cc3)CC2)C1` (single isomer, unassigned) [8B*, 1-(4-cyclobutylphenyl)-N-(5-methyl-1-(1H-tetrazol-5-yl)azepan-3-yl)cyclopropane-1-carboxamide] is 10 to 50 µM; for `C[C@H]1CCN(c2nnn[nH]2)C[C@H](NC(=O)C2(c3ccc(C4CCC4)cc3)CC2)C1` (single isomer, unassigned) [8C*, 1-(4-cyclobutylphenyl)-N-(5-methyl-1-(1H-tetrazol-5-yl)azepan-3-yl)cyclopropane-1-carboxamide] it is 10 to 50 µM.
Regarding `C[C@H]1CCN(c2nnn[nH]2)C[C@@H](NC(=O)C2(c3ccc(C4CCC4)cc3)CC2)C1` (single isomer, unassigned) [8D*, 1-(4-cyclobutylphenyl)-N-(5-methyl-1-(1H-tetrazol-5-yl)azepan-3-yl)cyclopropane-1-carboxamide], the IC50 lay in the range of 10 to 50 µM.
Same read-out and setting: the figure for `C[C@@]1(NC(=O)C2(c3ccc(Cl)cc3)CC2)CCCN(c2nnn[nH]2)C1` (single isomer, unassigned) [11A*, 1-(4-chlorophenyl)-N-(3-methyl-1-(1H-tetrazol-5-yl)piperidin-3-yl)cyclopropane-1-carboxamide] is more than 100 µM.
On to `C[C@]1(NC(=O)C2(c3ccc(Cl)cc3)CC2)CCCN(c2nnn[nH]2)C1` (single isomer, unassigned) [11B*, 1-(4-chlorophenyl)-N-(3-methyl-1-(1H-tetrazol-5-yl)piperidin-3-yl)cyclopropane-1-carboxamide], for which the IC50 was more than 100 µM.
The same measure, in the same setting: the result for `C[C@@H]1CCN(c2nnn[nH]2)C[C@@H](NC(=O)C2(c3ccc(Cl)cc3)CC2)C1` (single isomer, unassigned) [12B*, 1-(4-chlorophenyl)-N-(5-methyl-1-(1H-tetrazol-5-yl)azepan-3-yl)cyclopropane-1-carboxamide] reads 10 to 50 µM; that for `C[C@H]1CCN(c2nnn[nH]2)C[C@H](NC(=O)C2(c3ccc(Cl)cc3)CC2)C1` (single isomer, unassigned) [12C*, 1-(4-chlorophenyl)-N-(5-methyl-1-(1H-tetrazol-5-yl)azepan-3-yl)cyclopropane-1-carboxamide], more than 100 µM.
As to `C[C@H]1CCN(c2nnn[nH]2)C[C@@H](NC(=O)C2(c3ccc(Cl)cc3)CC2)C1` (single isomer, unassigned) [12D*, 1-(4-chlorophenyl)-N-(5-methyl-1-(1H-tetrazol-5-yl)azepan-3-yl)cyclopropane-1-carboxamide], the IC50 lay within 10 to 50 µM.
The same measure, in the same setting: the figure for `O=C(N[C@H]1CCCCCN(c2nnn[nH]2)C1)C1(c2ccc(Cl)cc2)CC1` (single isomer, unassigned) [14B*, N-(1-(1H-tetrazol-5-yl)azocan-3-yl)-1-(4-chlorophenyl)cyclopropane-1-carboxamide] is 10 to 50 µM; for `C[C@@H]1CCN(c2nnn[nH]2)C[C@@H](NC(=O)C2(c3ccc(Cl)c(F)c3O)CC2)C1` (single isomer, unassigned) [18B*, 1-(4-chloro-3-fluoro-2-hydroxyphenyl)-N-(5-methyl-1-(1H-tetrazol-5-yl)azepan-3-yl)cyclopropane-1-carboxamide] it is 1 to 10 µM; for `Cc1c(Cl)ccc(C2(C(=O)N[C@H]3C[C@H](C)CCN(c4nnn[nH]4)C3)CC2)c1O` (single isomer, unassigned) [21B*, 1-(4-chloro-2-hydroxy-3-methylphenyl)-N-(5-methyl-1-(1H-tetrazol-5-yl)azepan-3-yl)cyclopropane-1-carboxamide] it is 1 to 10 µM.
On the same count and under the same terms, the result for `Cc1c(Cl)ccc(C2(C(=O)N[C@@H]3C[C@@H](C)CCN(c4nnn[nH]4)C3)CC2)c1O` (single isomer, unassigned) [21C*, 1-(4-chloro-2-hydroxy-3-methylphenyl)-N-(5-methyl-1-(1H-tetrazol-5-yl)azepan-3-yl)cyclopropane-1-carboxamide] reads more than 100 µM; that for `Cc1c(Cl)ccc(C2(C(=O)N[C@H]3C[C@@H](C)CCN(c4nnn[nH]4)C3)CC2)c1O` (single isomer, unassigned) [21D*, 1-(4-chloro-2-hydroxy-3-methylphenyl)-N-(5-methyl-1-(1H-tetrazol-5-yl)azepan-3-yl)cyclopropane-1-carboxamide], 10 to 50 µM; that for `Cc1ccc(C2(C(=O)N[C@H]3C[C@H](C)CCN(c4nnn[nH]4)C3)CC2)c(O)c1F` (single isomer, unassigned) [22B*, 1-(3-fluoro-2-hydroxy-4-methylphenyl)-N-(5-methyl-1-(1H-tetrazol-5-yl)azepan-3-yl)cyclopropane-1-carboxamide], 1 to 10 µM.
The same measure, in the same setting: the result for `Cc1ccc(C2(C(=O)N[C@@H]3C[C@@H](C)CCN(c4nnn[nH]4)C3)CC2)c(O)c1F` (single isomer, unassigned) [22C*, 1-(3-fluoro-2-hydroxy-4-methylphenyl)-N-(5-methyl-1-(1H-tetrazol-5-yl)azepan-3-yl)cyclopropane-1-carboxamide] reads 10 to 50 µM; that for `Cc1ccc(C2(C(=O)N[C@H]3C[C@@H](C)CCN(c4nnn[nH]4)C3)CC2)c(O)c1F` (single isomer, unassigned) [22D*, 1-(3-fluoro-2-hydroxy-4-methylphenyl)-N-(5-methyl-1-(1H-tetrazol-5-yl)azepan-3-yl)cyclopropane-1-carboxamide], 1 to 10 µM.
For the molecule `CC(C)c1ccc(C2(C(=O)N[C@H]3C[C@H](C)CCN(c4nnn[nH]4)C3)CC2)c(O)c1` (single isomer, unassigned) [27B*, 1-(2-hydroxy-4-isopropylphenyl)-N-(5-methyl-1-(1H-tetrazol-5-yl)azepan-3-yl)cyclopropane-1-carboxamide], the concentration for half-maximal inhibition (IC50) fell in the range of 1 to 10 µM.
As for `CC(C)c1ccc(C2(C(=O)N[C@@H]3C[C@@H](C)CCN(c4nnn[nH]4)C3)CC2)c(O)c1` (single isomer, unassigned) [27C*, 1-(2-hydroxy-4-isopropylphenyl)-N-(5-methyl-1-(1H-tetrazol-5-yl)azepan-3-yl)cyclopropane-1-carboxamide], the IC50 lay within 50 to 100 µM.
Take `CC(C)c1ccc(C2(C(=O)N[C@H]3C[C@@H](C)CCN(c4nnn[nH]4)C3)CC2)c(O)c1` (single isomer, unassigned) [27D*, 1-(2-hydroxy-4-isopropylphenyl)-N-(5-methyl-1-(1H-tetrazol-5-yl)azepan-3-yl)cyclopropane-1-carboxamide]: the IC50 lay in the range of 1 to 10 µM.
The same measure, in the same setting: the figure for `C[C@@H]1CCN(c2nnn[nH]2)C[C@@H](NC(=O)C2(c3ccc(OC(F)(F)F)c(F)c3O)CC2)C1` (single isomer, unassigned) [28B*, 1-(3-fluoro-2-hydroxy-4-(trifluoromethoxy)phenyl)-N-(5-methyl-1-(1H-tetrazol-5-yl)azepan-3-yl)cyclopropane-1-carboxamide] is 1 to 10 µM; for `C[C@H]1CCN(c2nnn[nH]2)C[C@H](NC(=O)C2(c3ccc(OC(F)(F)F)c(F)c3O)CC2)C1` (single isomer, unassigned) [28C*, 1-(3-fluoro-2-hydroxy-4-(trifluoromethoxy)phenyl)-N-(5-methyl-1-(1H-tetrazol-5-yl)azepan-3-yl)cyclopropane-1-carboxamide] it is more than 100 µM.
